In patent publication US20210116454A1, “METHODS FOR TREATING A HEMATOLOGICAL CANCER AND THE USE OF COMPANION BIOMARKERS FOR 2-(2,6-DIOXOPIPERIDIN-3-YL)-4-((2-FLUORO-4-((3-MORPHOLINOAZETIDIN-1-YL)METHYL)BENZYL)AMINO)ISOINDOLINE-1,3-DIONE” (CELGENE CORPORATION, priority 2019, published 2021):
Like-named read-outs stand apart in the source and are kept apart here.

What was measured:
[1] = tested on: Peripheral blood mononuclear cells derived from four healthy donors; experiment: Viability of CD3-stimulated PBMCs (Viobility Fixable Dye, flow cytometry); format: cell-based
Protocol: To establish that this was due to the effect of the compound in promoting Ikaros degradation and not because of a lack of cell proliferation or viability of the CD3-stimulated PBMCs, the effect of Compound 1 on their viability was assessed by flow cytometry. […] Peripheral blood mononuclear cells derived from four healthy donors were exposed to Compound 1 at concentrations of 0.1, 1, 10, or 100 nM for 3, 4, or 7 days, and viability was measured by staining with Viobility™ Fixable Dye. […] The trend in cell viability continued through day 7, with Compound 1 treatment not effecting the viability of the PBMCs.

Ikaros [2] = target: T1, Ikaros (Homo sapiens, UniProt Q13422+Q96SW2); experiment: Enzyme fragment complementation (EFC) degradation assay, DF15 cells expressing ePL-tagged substrate; format: cell-based; design: expressed in transfected cells; host or cells: DF15 cells; conditions: for Emax: DF15, DF15 ePL-Ikaros, remaining substrate; for DC50: DF15 ePL-Ikaros, read-out: Ikaros degradation EC50
T1 sequence (Q13422 whole entry, the tested form may be a part): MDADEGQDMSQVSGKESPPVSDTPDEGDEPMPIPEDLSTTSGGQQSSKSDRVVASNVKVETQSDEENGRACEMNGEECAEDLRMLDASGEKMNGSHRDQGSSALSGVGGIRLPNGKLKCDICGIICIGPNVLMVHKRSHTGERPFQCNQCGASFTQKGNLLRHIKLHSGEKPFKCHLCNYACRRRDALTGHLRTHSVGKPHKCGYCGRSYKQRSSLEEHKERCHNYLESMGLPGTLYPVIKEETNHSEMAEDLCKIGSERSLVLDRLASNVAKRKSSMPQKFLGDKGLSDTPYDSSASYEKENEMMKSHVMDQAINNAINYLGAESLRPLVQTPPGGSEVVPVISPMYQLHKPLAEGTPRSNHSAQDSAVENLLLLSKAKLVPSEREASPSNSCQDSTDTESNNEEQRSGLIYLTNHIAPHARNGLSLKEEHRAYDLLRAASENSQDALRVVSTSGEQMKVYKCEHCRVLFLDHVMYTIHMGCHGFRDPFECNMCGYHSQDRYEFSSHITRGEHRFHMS
T1 sequence (Q96SW2 whole entry, the tested form may be a part): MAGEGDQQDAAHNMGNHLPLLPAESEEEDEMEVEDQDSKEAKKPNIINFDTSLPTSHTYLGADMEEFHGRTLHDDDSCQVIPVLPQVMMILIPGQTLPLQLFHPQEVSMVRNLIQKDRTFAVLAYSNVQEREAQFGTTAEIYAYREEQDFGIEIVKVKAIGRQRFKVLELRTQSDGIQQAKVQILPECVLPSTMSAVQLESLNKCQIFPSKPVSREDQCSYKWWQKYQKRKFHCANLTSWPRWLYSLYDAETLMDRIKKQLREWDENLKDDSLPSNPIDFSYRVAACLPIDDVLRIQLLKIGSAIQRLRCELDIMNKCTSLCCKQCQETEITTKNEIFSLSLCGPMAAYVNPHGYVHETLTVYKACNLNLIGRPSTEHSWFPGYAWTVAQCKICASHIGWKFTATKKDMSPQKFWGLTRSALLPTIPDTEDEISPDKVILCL
T1 sequence (Q16531 whole entry partner, the tested form may be a part): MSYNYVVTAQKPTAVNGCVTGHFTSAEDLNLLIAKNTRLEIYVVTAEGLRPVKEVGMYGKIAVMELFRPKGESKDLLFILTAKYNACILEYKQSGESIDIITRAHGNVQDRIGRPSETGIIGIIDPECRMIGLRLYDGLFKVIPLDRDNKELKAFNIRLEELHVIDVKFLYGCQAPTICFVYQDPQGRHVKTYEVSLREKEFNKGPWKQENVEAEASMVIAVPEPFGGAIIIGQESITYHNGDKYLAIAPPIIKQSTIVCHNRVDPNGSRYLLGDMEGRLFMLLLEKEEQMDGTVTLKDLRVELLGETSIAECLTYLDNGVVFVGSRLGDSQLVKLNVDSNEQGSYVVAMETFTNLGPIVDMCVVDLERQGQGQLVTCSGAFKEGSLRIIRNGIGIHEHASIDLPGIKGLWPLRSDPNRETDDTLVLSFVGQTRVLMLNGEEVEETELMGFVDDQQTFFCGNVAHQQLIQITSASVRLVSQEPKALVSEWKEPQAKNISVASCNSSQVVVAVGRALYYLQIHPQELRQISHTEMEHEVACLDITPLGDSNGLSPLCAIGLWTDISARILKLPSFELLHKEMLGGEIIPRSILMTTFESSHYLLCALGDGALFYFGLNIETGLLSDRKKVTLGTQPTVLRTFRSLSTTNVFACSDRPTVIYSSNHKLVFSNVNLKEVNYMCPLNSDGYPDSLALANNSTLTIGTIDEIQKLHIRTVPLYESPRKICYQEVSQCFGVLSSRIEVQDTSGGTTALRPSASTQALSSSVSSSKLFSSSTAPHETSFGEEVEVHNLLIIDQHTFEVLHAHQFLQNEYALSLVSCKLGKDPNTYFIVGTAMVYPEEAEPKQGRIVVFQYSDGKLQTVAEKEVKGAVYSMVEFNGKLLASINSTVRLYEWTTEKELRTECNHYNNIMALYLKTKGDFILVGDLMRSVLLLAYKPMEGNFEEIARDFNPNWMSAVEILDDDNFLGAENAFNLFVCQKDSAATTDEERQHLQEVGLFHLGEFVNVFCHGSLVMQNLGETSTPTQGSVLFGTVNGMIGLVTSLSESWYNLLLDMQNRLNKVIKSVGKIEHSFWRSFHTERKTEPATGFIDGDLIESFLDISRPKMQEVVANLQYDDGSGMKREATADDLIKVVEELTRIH

SU-DHL-2 cells = experiment: Western blot of substrate degradation by each enantiomer, short time-course; format: cell-based; conditions: SU-DHL-2, within 2 hours at 1 nM
Protocol: Pure samples of each enantiomer were tested for cellular degradation of substrate proteins measured over a short time-course (FIG. 16). SU-DHL-2 cells were treated for 1, 2, and 6 hours with vehicle control (0.1% DMSO), Compound 1 (1, 10, 100 nM), or Compound 2 (1, 10, 100 nM). Western blot analysis was used to evaluate the extent of degradation of the protein substrates Aiolos, Ikaros, and ZFP91. Compound 1 inhibited Aiolos, Ikaros, and ZFP91 in as early as 1 hour of treatment with as little as 1 nM.

LPS system = experiment: BioMAP LPS system (PBMCs and endothelial cells); format: cell-based, human; conditions: 0.01, 0.1, 1, and 10 μM
Protocol: (§1) The activity of Compound 1 was profiled in a panel of human primary cell-based assays, modeling complex tissue and disease biology of organs (vasculature, immune system, skin, lung) and general tissue biology using the BioMAP System (DiscoveRx, Fremont, Calif.).
(§2) The BioMAP System consists of twelve primary human monoculture or co-culture systems in stimulated and non-stimulated control conditions (FIG. 4, panel A). When tested at 0.01, 0.1, 1, and 10 μM, Compound 1 mediated changes in key biomarker activities. Specifically, the profiles for Compound 1 reflected selective anti-inflammatory and immunomodulatory impact on monocyte (LPS) and T cell dependent B cell activation responses (BT). Treatment with Compound 1 led to a decrease in interleukin 8 (IL-8), interleukin 1a (IL-1a), secreted prostaglandin E2 (sPGE2), and secreted tumor necrosis factor alpha (sTNFα) in the LPS system, which consisted of peripheral blood mononuclear cells (PBMCs) and endothelial cells. Furthermore, secreted IgG (sIgG), secreted interleukin 17A (sIL-17A), secreted interleukin 17F (sIL-17F), and sTNFα decreased, whereas secreted interleukin 2 (sIL-2) and secreted interleukin 6 (sIL-6) increased, in the BT system, which was comprised of B cells and PBMCs.

MyoF system = experiment: BioMAP MyoF system (lung fibroblasts); format: cell-based, human; conditions: 0.01, 0.1, 1, and 10 μM
Protocol: as §1, §2

Ikaros [3] = target: T1, Ikaros; experiment: Ikaros degradation in anti-CD3 stimulated PBMCs by flow cytometry; format: cell-based
Protocol: Purified PBMCs from four healthy donors were plated on anti-CD3-coated plates to stimulate T cells and subsequently treated with either DMSO (control) or Compound 1 at various concentrations. The ability of Compound 1 to promote the degradation of Ikaros was assessed over time by flow cytometry (FIG. 12).

BT system = experiment: BioMAP BT system (B cells and PBMCs); format: cell-based, human; conditions: 0.01, 0.1, 1, and 10 μM
Protocol: as §1, §2

SU-DHL2 CRBN^WT cells = experiment: Cell proliferation in CRBN^WT (CAS9 control) cells, 5 days; format: cell-based; conditions: Homo sapiens, SU-DHL-2, 120 h
From the text: (§3) The activated B-cell (ABC) and MYC/BCL2 double expressor cell lines SU-DHL-2 and RIVA, the germinal center B-cell (GCB) and MYC/BCL2 double hit cell lines (and expressing BCL6) Karpas-422, SU-DHL-10, WSU-DLCL2, and the primary mediastinal B-cell lymphoma (PMBL) cell line Farage were infected with a CAS9 expressing lentivirus construct to generate the control CAS9 expressing cells. The Cas9 cells had wild type cereblon expression (CRBN^WT).
(§4) To generate the cereblon knock out cells (CRBN^−/−), the individual control CAS9 cells were infected with a construct expressing a subgenomic single guide RNA (sgRNA). Western blot analysis confirmed the absence of cereblon protein in the CRBN^−/− cells, relative to the levels of the housekeeping protein β-tubulin. The CRBN^WT and CRBN^−/− cells were treated with increasing concentrations of Compound 1 for five days.

WSU-DLCL2 CRBN^WT cells = experiment: as above; format: cell-based; conditions: Homo sapiens, WSUDLCL2, 120 h
From the text: as §3, §4

SU-DHL10 CRBN^WT cells = experiment: as above; format: cell-based; conditions: Homo sapiens, 120 h
From the text: as §3, §4

RIVA CRBN^WT cells = experiment: as above; format: cell-based; conditions: 120 h
From the text: as §3, §4

Aiolos = target: T2, Aiolos (Homo sapiens, UniProt Q96SW2+Q9UKT9); experiment: Enzyme fragment complementation (EFC) degradation assay, DF15 cells expressing ePL-tagged substrate; format: cell-based; conditions: for Emax: DF15, DF15 ePL-Aiolos, remaining substrate; for DC50: DF15 ePL-Aiolos, read-out: Aiolos degradation EC50
T2 construct: expressed in transfected cells; host or cells: DF15 cells
T2 sequence (Q9UKT9 whole entry, the tested form may be a part): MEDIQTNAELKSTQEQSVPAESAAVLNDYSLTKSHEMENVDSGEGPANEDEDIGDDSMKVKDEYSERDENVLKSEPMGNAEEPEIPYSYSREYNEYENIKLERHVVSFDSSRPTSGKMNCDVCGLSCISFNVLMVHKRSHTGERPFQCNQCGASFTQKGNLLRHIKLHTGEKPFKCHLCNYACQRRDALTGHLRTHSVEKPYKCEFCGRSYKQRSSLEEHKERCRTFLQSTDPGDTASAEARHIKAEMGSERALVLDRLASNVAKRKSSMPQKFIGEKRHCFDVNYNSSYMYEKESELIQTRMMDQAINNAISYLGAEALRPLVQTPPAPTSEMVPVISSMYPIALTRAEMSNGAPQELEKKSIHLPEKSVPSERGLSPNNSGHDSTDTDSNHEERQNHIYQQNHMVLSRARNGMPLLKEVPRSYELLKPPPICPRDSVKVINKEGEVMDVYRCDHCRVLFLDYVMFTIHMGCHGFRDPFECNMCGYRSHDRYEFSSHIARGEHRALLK
T2 sequence (Q96SW2 whole entry, the tested form may be a part): as the sequence (Q96SW2 whole entry, the tested form may be a part) above
T2 sequence (Q16531 whole entry partner, the tested form may be a part): as the sequence (Q16531 whole entry partner, the tested form may be a part) above

SU-DHL10 CRBN^-/- cells = experiment: Cell proliferation in CRBN^-/- (knock out) cells, 5 days; format: cell-based; conditions: Homo sapiens, 120 h
From the text: as §3, §4

RIVA CRBN^-/- cells = experiment: as above; format: cell-based; conditions: 120 h
From the text: as §3, §4

WSU-DLCL2 CRBN^-/- cells = experiment: as above; format: cell-based; conditions: Homo sapiens, WSUDLCL2, 120 h
From the text: as §3, §4

SU-DHL2 CRBN^-/- cells = experiment: as above; format: cell-based; conditions: Homo sapiens, SU-DHL-2, 120 h
From the text: as §3, §4

In the case of `O=C1CC[C@H](N2C(=O)c3cccc(NCc4ccc(CN5CC(N6CCOCC6)C5)cc4F)c3C2=O)C(=O)N1` [Compound 1, (S)-2-(2,6-dioxopiperidin-3-yl)-4-((2-fluoro-4-((3-morpholinoazetidin-1-yl)methyl)benzyl)amino)isoindoline-1,3-dione], the “effect on PBMC viability” value ([1]; 0.1, 1, 10, or 100 nM for 3, 4, or 7 days) is reported as “no significant effect”, the “viable PBMCs” value ([1]; day 3 and day 4, 0.1, 1, 10, or 100 nM) is reported as “roughly 80%” and the Emax (Ikaros [2]; 1 hour) is reported as 75.5%. For the same compound, the Emax (Ikaros [2]; 2 hours) was 33%, the Emax (Ikaros [2]; 6 hours) was 1.5% and the Emax (Ikaros [2]; 24 hours) was 0.03%. The DC50 (Ikaros [2]; 1 hour) was 0.6 nM, the DC50 (Ikaros [2]; 2 hours) was 0.8 nM and the DC50 (Ikaros [2]; 6 hours) was 0.5 nM. The DC50 (Ikaros [2]; 24 hours) was 0.4 nM, the “degradation of each of Aiolos, Ikaros, and ZFP91” value (SU-DHL-2 cells) was “More than 50%” and the “IL-8, IL-1a, sPGE2, and sTNFα” value (LPS system) was “decrease”. The “collagen-I and -III expression” value (MyoF system) was “compelling inhibition”, the “plasminogen activator inhibitor-1 (PAI-1) expression” value (MyoF system) was “slight inhibition” and the “duration of Ikaros degradation after a single treatment” value (Ikaros [3]) was “maintained up to 7 days”. The “Ikaros in PBMCs (percentage of Ikaros positive cells)” value (Ikaros [3]; four healthy donors) was “concentration-dependent degradation”, the “sIL-2 and sIL-6” value (BT system) was “increased” and the “sIgG, sIL-17A, sIL-17F, and sTNFα” value (BT system) was “decreased”. For the same compound, the Emax (SU-DHL2 CRBN^WT cells) was 1%, the IC50 (SU-DHL2 CRBN^WT cells) was 2.5 nM and the Emax (WSU-DLCL2 CRBN^WT cells) was 19%. The IC50 (WSU-DLCL2 CRBN^WT cells) was 40 nM, the Emax (SU-DHL10 CRBN^WT cells) was 0% and the IC50 (SU-DHL10 CRBN^WT cells) was 35 nM. The Emax (RIVA CRBN^WT cells) was 30%, the IC50 (RIVA CRBN^WT cells) was 8 nM and the Emax (Aiolos; 1 hour) was 60%. For the same compound, the Emax (Aiolos; 2 hours) was 16.5%, the Emax (Aiolos; 6 hours) was 6% and the Emax (Aiolos; 24 hours) was 7%. The DC50 (Aiolos; 1 hour) was 0.6 nM, the DC50 (Aiolos; 2 hours) was 0.5 nM and the DC50 (Aiolos; 6 hours) was 0.2 nM. The DC50 (Aiolos; 24 hours) was 0.2 nM, the IC50 (SU-DHL10 CRBN^-/- cells) was > 10000 nM and the IC50 (RIVA CRBN^-/- cells) was > 10000 nM. The IC50 (WSU-DLCL2 CRBN^-/- cells) was > 10000 nM and the IC50 (SU-DHL2 CRBN^-/- cells) was > 10000 nM.
